# Measurements from patent publication US7018979B1, “Method for using potassium channel agonists for delivering a medicant to an abnormal brain region and/or a malignant tumor” (Cedars-Sinai Medical Center, priority 2000, dated 2006).
# Entries after “also recorded” stand apart in the source; their conditions may differ. Counter-ions that a name gives are not always drawn.
# Assays:
# [1] = cited from earlier work
# [2] = Arterial blood pressure monitored during intracarotid infusion; details: higher doses, 100 and 110 μg/kg/min
compound,measurement,setting,value
"CC(N/C(=N\C#N)Nc1ccncc1)C(C)(C)C (racemic) [pinacidil, (+/−)-N-cyano-N′-4-pyridinyl-N″-(1,2,2-trimethylpropyl)-guanidine]",solubility in water,[1],insoluble in water; also recorded: not easily dissolved in water
"O=c1[nH]c2cc(C(F)(F)F)ccc2n1-c1cc(C(F)(F)F)ccc1O [NS-1619, 1,3-dihydro-1-[2-hydroxy-5-(trifluoromethyl)phenyl]-5-(trifluoromethyl)-2H-benzimidazol-2-one]",solubility in water,[1],not easily dissolved in water
same,arterial blood pressure,[2],significant drop
CC1=NS(=O)(=O)c2cc(Cl)ccc2N1 [diazoxide],solubility in water,[1],not easily dissolved in water
Nc1cc(N2CCCCC2)nc(N)[n+]1OS(=O)(=O)[O-] [minoxidil sulfate],solubility in water,[1],not easily dissolved in water
